Results: paper PMC11100219, “Dual-function antimicrobial-antibiofilm peptide hybrid to tackle biofilm-forming Staphylococcus epidermidis” (Annals of Clinical Microbiology and Antimicrobials, 2024)
In brackets after ≈: the same amount, converted by molar mass. Residues, ends and D or L forms follow the SMILES beside them.

Columns and labels:
[1] = system: human red blood cells (hRBCs); test: Hemolysis activity (hemoglobin release); type: cell-based; conditions: 1 h, 37°C
Procedure: The effect of peptides on human red blood cells (hRBCs) was assessed by observing the release of hemoglobin upon treated with peptide. Briefly, the hRBCs were obtained from healthy volunteers and subsequently diluted in 10 mM PBS to a concentration of 2% hRBCs. An equal volume of 2% hRBCs and peptide at concentration of 0.98–250 µg/mL in 10 mM PBS mixtures were incubated for 1 h at 37°C. Following incubation, the suspension was centrifuged, then supernatants were collected and transferred to 96-well microplates for measurement of absorbance at OD of 405 nm (OD405). This study was performed in accordance with the Thammasat University Ethics Committee (COA No. 066/2562). Written informed consent was obtained from all volunteers.

[2] = system: Acinetobacter baumanii MT strain; test: Broth microdilution MIC / MBC; type: cell-based; conditions: 24 h, 37°C; for MIC: broth microdilution, MHB, 0.98-250 µg/mL, visible inspection; for MBC: plating of non-turbid wells on TSA
Procedure: (§1) The minimal inhibitory concentrations (MICs) of peptide derivatives versus planktonic bacteria were assessed using a modification of the broth microdilution assay previously described in the National Committee for Clinical Laboratory Standards (NCCLS). In brief, bacteria at mid-logarithmic growth were collected by centrifugation at 2,500 × g for 5 min. Subsequently, the pellet was resuspended and adjusted in Mueller-Hinton Broth (MHB; BD Bacto™, USA) to an OD620 of 0.05. Fifty µL of bacterial suspensions was transferred to 96-well microplates. Later, 50 µL of peptide derivatives at 0.98–250 µg/mL in 10 mM PBS, was added to wells and incubated for 24 h at 37°C with continuous shaking at 220 rpm. […] The experiments were done in three technical replicates and repeated independently.
(§2) To determine minimal bactericidal concentrations (MBCs) of the peptides, 50 µL of supernatant from non-turbid wells was plated on TSA, and the number of colony-forming units (CFUs) was observed after 24 h of incubation at 37°C. MBC was defined as the minimum concentration of peptide at which no bacterial colony was observed on the plate.

[3] = system: Bacillus cereus ATCC 11778; test: Broth microdilution MIC / MBC; type: cell-based; conditions: 24 h, 37°C; for MIC: broth microdilution, MHB, 0.98-250 µg/mL, visible inspection; for MBC: plating of non-turbid wells on TSA
Procedure: as §1, §2

[4] = system: Staphylococcus aureus ATCC 25923; test: Broth microdilution MIC / MBC; type: cell-based; conditions: 24 h, 37°C
Procedure: as §1, §2

[5] = system: Escherichia coli ATCC 25922; test: Broth microdilution MIC / MBC; type: cell-based; conditions: 24 h, 37°C; for MBC: plating of non-turbid wells on TSA
Procedure: as §1, §2

[6] = system: Staphylococcus epidermidis ATCC 35984; test: Broth microdilution MIC / MBC; type: cell-based; conditions: 24 h, 37°C; for MIC: broth microdilution, MHB, 0.98-250 µg/mL, visible inspection; for MBC: plating of non-turbid wells on TSA
Procedure: as §1, §2

[7] = system: Listeria monocytogenes 10403s; test: Broth microdilution MIC / MBC; type: cell-based; conditions: 24 h, 37°C; for MIC: broth microdilution, MHB, 0.98-250 µg/mL, visible inspection; for MBC: plating of non-turbid wells on TSA
Procedure: as §1, §2

[8] = system: Pseudomonas aeruginosa ATCC 27853; test: Broth microdilution MIC / MBC; type: cell-based; conditions: 24 h, 37°C; for MIC: broth microdilution, MHB, 0.98-250 µg/mL, visible inspection; for MBC: plating of non-turbid wells on TSA
Procedure: as §1, §2

[9] = system: Salmonella Typhimurium ATCC 13311; test: Broth microdilution MIC / MBC; type: cell-based; conditions: 24 h, 37°C; for MIC: broth microdilution, MHB, 0.98-250 µg/mL, visible inspection; for MBC: plating of non-turbid wells on TSA
Procedure: as §1, §2

biofilm-forming bacteria = test: Antibacterial activity against the panel of planktonic biofilm-forming bacteria; type: cell-based
Procedure: The biofilm-forming bacteria, including S. epidermidis ATCC 35984, Staphylococcus aureus ATCC 25923, Bacillus cereus ATCC 11778, Listeria monocytogenes 10403s, Pseudomonas aeruginosa ATCC 27853, Salmonella Typhimurium ATCC 13311, Escherichia coli ATCC 25922 and Acinetobacter baumanii MT strain, were used. All bacterial strains were grown on tryptic soy agar (TSA; BD Bacto™, USA) except E. coli and L. monocytogenes which were cultured on Luria agar (LA) and TSA supplemented with 0.6% Yeast Extract (TSAYE), respectively, at 37°C overnight. Subsequently, isolated colonies were inoculated and cultured in 5 mL of tryptic soy broth (TSB; BD Bacto™, USA), Luria Broth (LB), or TSB supplemented with 0.6% Yeast Extract (TSBYE) at 37°C for 16–18 h.
The minimal inhibitory concentrations (MICs) of peptide derivatives versus planktonic bacteria were assessed using a modification of the broth microdilution assay previously described in the National Committee for Clinical Laboratory Standards (NCCLS). In brief, bacteria at mid-logarithmic growth were collected by centrifugation at 2,500 × g for 5 min. Subsequently, the pellet was resuspended and adjusted in Mueller-Hinton Broth (MHB; BD Bacto™, USA) to an OD620 of 0.05. Fifty µL of bacterial suspensions was transferred to 96-well microplates. […]

[10] = system: all gram-positive bacterial strains; test: Mean MIC and therapeutic index, gram-positive strains; type: cell-based; conditions: four gram-positive strains
Procedure: as §1
(§3) The therapeutic index (TI) is widely used for evaluating a peptide’s efficacy and safety. It is the ratio between the minimum hemolytic concentration (MHC, the concentration causing 10% hemolysis) and the geometric mean (GM) value of the MIC [15]. […] While, both lysine-substituted peptides (BiF2_7K and BiF2_5K7K) had higher TIs against all tested biofilm-forming bacteria than did the two parent peptides, and the TI of BiF2_5K7K was higher than that of BiF2_7K.

[11] = system: S. epidermidis (ATCC 35984) biofilm; test: Biofilm-formation inhibitory activity, crystal violet staining; type: cell-based, Staphylococcus epidermidis; conditions: CV staining, TSB, 10^6 CFU/mL, 24 h, 37°C, 0.98-250 µg/mL; for MBIC50: minimum concentration inhibiting biofilm formation more than 50%; for MBIC90: minimum concentration inhibiting biofilm formation more than 90%
Procedure: The biofilm inhibitory activity of peptide derivatives was assessed by modified crystal violet (CV) staining. Briefly, the pellet of S. epidermidis (ATCC 35984) was collected through centrifugation of bacterial suspensions grown overnight at 2,500 × g for 5 min. Subsequently, the pellet was resuspended and diluted with TSB to a final concentration of 10^6 CFU/mL. Then, 50 µL of these diluted suspensions was transferred to 96-well microplates containing same volume of peptide derivatives in 10 mM phosphate buffer saline (PBS; Caisson Labs, USA), with concentrations ranging from 0.98 to 250 µg/mL. Vancomycin was used as positive control while TSB medium without bacteria was used as negative control. After 24 h of incubation and reaching static growth at 37°C, culture media as well as planktonic cells were removed, then the biofilm in each well was washed thrice with 0.85% NaCl. For CV staining, biofilms were fixed with 95% ethanol and stained with a 0.1% (v/v) CV solution for 15 min. After removal of excess dye, each well was washed thrice with 0.85% NaCl and resuspended in 95% ethanol to dissolve bound dye. Absorbance was determined at 570 nm using a Multiskan SkyHigh microplate reader (Thermo Scientific™, Singapore). All experiments were done in six technical replicates and repeated independently three times. Minimum biofilm inhibitory concentrations at 50% and 90% (MBIC50 and MBIC90) refers to concentrations of the peptide at which the inhibition of biofilm was at least 50% and 90%, respectively.

[12] = system: all gram-negative bacterial strains; test: Mean MIC and therapeutic index, gram-negative strains; type: cell-based; conditions: four gram-negative strains
Procedure: as §1, §3

[13] = system: human lung fibroblast MRC-5 cell lines (ATCC CCL-171); test: MTT cytotoxicity assay; type: cell-based; conditions: MRC-5, 24 h
Procedure: The toxicity of peptide BiF2_5K7K against human lung fibroblast MRC-5 cell lines (ATCC CCL-171) was investigated by MTT colorimetric assay. Briefly, MRC-5 cells were cultured in Minimum Essential Medium [MEM; supplemented with 10% heat-inactivated FBS and 1% Penicillin-Streptomycin] in 5% CO2 at 37°C. Following an overnight incubation, MRC-5 cells were diluted to 10,000 cells/well and placed in 96-well microplates. Subsequently, they were exposed to BiF2_5K7K at 0.98 to 250 µg/mL. After incubation for 24 h, MTT solution (0.4 mg/mL) was added to each well and incubated for an additional 3 h under 5% CO2 at 37°C. The supernatant was then removed and 100 µL DMSO added, and absorbance was measured at 570 nm using a microplate reader.

[14] = broth microdilution, MHB, 0.98-250 µg/mL, visible inspection

| SMILES | MIC [2] | MBC [2] | MIC [3] | MBC [3] | MBC [5] | MIC [6] | MBC [6] | MIC [7] | MBC [7] | MIC [8] | MBC [8] | MIC [9] | MBC [9] | GM +, geometric mean of MIC values from all gram-positive bacterial strains [10] | MBIC50 [11] | MBIC90 [11] | GM-, geometric mean of MIC values from all gram-negative bacterial strains [12] | further results |
| --- | --- | --- | --- | --- | --- | --- | --- | --- | --- | --- | --- | --- | --- | --- | --- | --- | --- | --- |
| CC[C@H](C)[C@H](NC(=O)[C@H](CC(C)C)NC(=O)[C@H](CCCCN)NC(=O)[C@@H](NC(=O)[C@H](CC(C)C)NC(=O)[C@@H](N)Cc1ccccc1)C(C)C)C(=O)N[C@@H](CC(C)C)C(N)=O [BiF] (H-FLVKLIL-NH2; N-terminus assumed) | > 250 µg/mL | > 250 µg/mL | > 250 µg/mL | > 250 µg/mL | > 250 µg/mL | > 250 µg/mL | > 250 µg/mL | > 250 µg/mL | > 250 µg/mL | > 250 µg/mL | > 250 µg/mL | > 250 µg/mL | > 250 µg/mL | >250 µg/mL | 125 µg/mL | >250 µg/mL | >250 µg/mL | hRBCs lysed (hemolysis) ([1]; at 31.25 µg/mL): more than 20%; hemolytic activity ([1]; at 250 µg/mL (maximum concentration tested)): 100%; MHC, minimum hemolytic concentration ([1]; peptide concentration causing 10% hemolysis of hRBCs, 2% hRBCs in 10 mM PBS, OD405): 15.63 µg/mL; MIC [4, 14]: > 250 µg/mL; MBC ([4]; plating of non-turbid wells on TSA): > 250 µg/mL; MIC [5, 14]: > 250 µg/mL; antibacterial activity against target bacteria (biofilm-forming bacteria): no antibacterial activity |
| CC[C@H](C)[C@H](NC(=O)CN)C(=O)NCC(=O)N[C@@H](C)C(=O)N[C@H](C(=O)N[C@@H](CC(C)C)C(=O)N[C@@H](CCCCN)C(=O)N[C@H](C(=O)N[C@@H](CC(C)C)C(=O)N[C@H](C(=O)N[C@H](C(=O)NCC(=O)N[C@@H](CC(C)C)C(=O)N1CCC[C@H]1C(=O)N[C@@H](C)C(=O)N[C@@H](CC(C)C)C(=O)N[C@H](C(=O)N[C@@H](CO)C(=O)N[C@@H](Cc1c[nH]c2ccccc12)C(=O)N[C@H](C(=O)N[C@@H](CCCCN)C(=O)N[C@@H](CCCNC(=N)N)C(=O)N[C@@H](CCCCN)C(=O)N[C@@H](CCCNC(=N)N)C(=O)N[C@@H](CCC(N)=O)C(=O)N[C@@H](CCC(N)=O)C(N)=O)[C@@H](C)CC)[C@@H](C)CC)[C@@H](C)O)[C@@H](C)O)C(C)C)C(C)C [Melittin, melittin, reference compound] | 7.81 µg/mL (≈ 2.74 µM) | 7.81 µg/mL (≈ 2.74 µM) | 3.91 µg/mL (≈ 1.37 µM) | 3.91 µg/mL (≈ 1.37 µM) | 31.2 µg/mL (≈ 11 µM) | 15.6 µg/mL (≈ 5.49 µM) | 15.6 µg/mL (≈ 5.49 µM) | 3.91 µg/mL (≈ 1.37 µM) | 3.91 µg/mL (≈ 1.37 µM) | 15.6 µg/mL (≈ 5.49 µM) | 15.6 µg/mL (≈ 5.49 µM) | 3.91 µg/mL (≈ 1.37 µM) | 3.91 µg/mL (≈ 1.37 µM) | 6.84 µg/mL |  |  | 14.65 µg/mL | lysis of hRBCs ([1]; at 3.91 µg/mL): completely lysed; cytotoxic effect [13]: strong dose-dependent cytotoxic effect |
| CN[C@H](CC(C)C)C(=O)N[C@H]1C(=O)N[C@@H](CC(N)=O)C(=O)N[C@H]2C(=O)N[C@H]3C(=O)N[C@H](C(=O)N[C@H](C(=O)O)c4cc(O)cc(O)c4-c4cc3ccc4O)[C@H](O)c3ccc(c(Cl)c3)Oc3cc2cc(c3O[C@@H]2O[C@H](CO)[C@@H](O)[C@H](O)[C@H]2O[C@H]2C[C@](C)(N)[C@H](O)[C@H](C)O2)Oc2ccc(cc2Cl)[C@H]1O [vancomycin, reference compound] |  |  |  |  |  |  |  |  |  |  |  |  |  |  | 3.91 µg/mL | 3.91 µg/mL |  |  |
